Our source for the mass density values is the NIST ThermoML archive (doi:10.1016/j.jct.2016.02.027).

± gives the expanded uncertainty stated by the source.

For data set [1] the following is noted: 298.15 K; 101.33 kPa; Liquid; Vibrating tube method.
The nature of data set [2]: xn = mol fraction of the nth substance listed. The settings on record: 298.15 K, 101.3 kPa, Liquid, Vibrating tube method.

The mass density is the mass of a sample divided by its volume. As to `CCCC[N+]1(C)CCCC1.O=S(=O)([N-]S(=O)(=O)C(F)(F)F)C(F)(F)F`, in data set [1], the mass density was determined as 1394.68 ± 6 kg/m3.
Turning to `CCCC[N+]1(C)CCCC1.O=S(=O)([N-]S(=O)(=O)C(F)(F)F)C(F)(F)F` + CCCCCCCC, the mass density in data set [2] (x2 = 0.042) is given as 1384.07 ± 4.5 kg/m3.
Consider `CCCC[N+]1(C)CCCC1.O=S(=O)([N-]S(=O)(=O)C(F)(F)F)C(F)(F)F` + CCCCCCCCCC, for which, in data set [2] (x2 = 0.023), the mass density turned out to be 1387.66 ± 4.5 kg/m3.
For the compound `CCCC[N+]1(C)CCCC1.O=S(=O)([N-]S(=O)(=O)C(F)(F)F)C(F)(F)F` + c1ccccc1, the figures for the mass density in data set [2] (x2 = 0.81) and in data set [2] (x2 = 0.811) were 1117.76 ± 4.3 kg/m3 and 1118.57 ± 4.3 kg/m3, respectively.
